# e = 2'-O-(2-methoxyethyl) (MOE); d = 2'-deoxy (DNA)
# Tested on: JNK3 mRNA
# Assay: Northern assay of JNK3 mRNA levels in SH-SY5Y cells
# Format: cell-based, human
# Details: 200 nM oligonucleotide
# Procedure: Northern Assays: The mRNA expression of each JNK protein was determined by using a nucleic acid probe specifically hybridizable thereto. Nucleic acid probes specific for JNK1, JNK2 and JNK3 are described in Examples 3, 4 and 5, respectively. The probes were radiolabelled by means well known in the art (see, e.g., Short Protocols in Molecular Biology, 2nd Ed., Ausubel et al., Eds., John Wiley & Sons, New York, 1992, pages 3-11 to 2-3-44 and 4-17 to 4-18; Ruth, Chapter 6 In: Methods in Molecular Biology, Vol. 26: Protocols for Oligonucleotide Conjugates, Agrawal, ed., Humana Press Inc., Totowa, N.J., 1994, pages 167-185; and Chapter 10 In: Molecular Cloning: A Laboratory Manual, 2nd Ed., Sambrook et al., Eds., pages 10.1-10.70). The blots were stripped and reprobed with a ^32P-labeled glyceraldehyde 3-phosphate dehydrogenase (G3PDH) probe (Clontech Laboratories, Inc., Palo Alto, Calif.) in order to confirm equal loading of RNA and to allow the levels of JNK transcripts to be normalized with regard to the G3PDH signals.
# B. JNK3-specific probes: In initial screenings of a set of oligonucleotides derived from the JNK3 sequence for biological activity, a cDNA clone of JNK3 (Derijard et al., Cell, […], 76, 1025) was radiolabeled and used as a JNK3-specific probe in Northern blots. Alternatively, however, one or more of the oligonucleotides of Table 14 is detectably labeled and used as a JNK3-specific probe.
# E. Activities of JNK3 oligonucleotides: The JNK3-specific phosphorothioate, 2′-methoxyethoxy “gapmer” oligonucleotides (Table 14) were screened for their ability to affect JNK3 mRNA levels in SH-SY5Y cells (Biedler et al., Cancer Res., 1973, 33, 2643). SH-SY5Y cells express a variety of mitogen-activated protein kinases (MAPKs; see, e.g., Cheng et al., J. Biol. Chem., 1998, 273, 14560). Cells were grown in DMEM essentially as previously described (e.g., Singleton et al., J. Biol. Chem., 1996, 271, 31791; Jalava et al., Cancer Res., 1990, 50, 3422) and treated with oligonucleotides at a concentration of 200 nM as described in Example 2. Control cultures were treated with an aliquot of LIPOFECTIN™ that contained no oligonucleotide.
Substance,% EXPRESSION,% INHIBITION
"16690 (antisense TTCAACAGTTTCTTGCATAA; sugars from the 5' end e6 d8 e6, all phosphorothioate, methylation of C not given here) [compound 16690]",60%,40%
"16691 (antisense CTCATCTATAGGAAACGGGT; sugars from the 5' end e6 d8 e6, all phosphorothioate, methylation of C not given here) [compound 16691]",66%,34%
"16692 (antisense TGGAGGCTCATAAATACCAC; sugars from the 5' end e6 d8 e6, all phosphorothioate, methylation of C not given here) [compound 16692]",47%,
"16693 (antisense TATAAGAAATGGAGGCTCAT; sugars from the 5' end e6 d8 e6, all phosphorothioate, methylation of C not given here) [compound 16693]",40%,
"16694 (antisense TCACATCCAATGTTGGTTCA; sugars from the 5' end e6 d8 e6, all phosphorothioate, methylation of C not given here) [compound 16694]",42%,
"16695 (antisense TTATCGAATCCCTGACAAAA; sugars from the 5' end e6 d8 e6, all phosphorothioate, methylation of C not given here) [compound 16695]",44%,
"16696 (antisense GTTTGGCAATATATGACACA; sugars from the 5' end e6 d8 e6, all phosphorothioate, methylation of C not given here) [compound 16696]",55%,
"16697 (antisense CTGTCAAGGACAGCATCATA; sugars from the 5' end e6 d8 e6, all phosphorothioate, methylation of C not given here) [compound 16697]",54%,
"16698 (antisense AATCACTTGACATAAGTTGG; sugars from the 5' end e6 d8 e6, all phosphorothioate, methylation of C not given here) [compound 16698]",63%,37%
"16699 (antisense TAAATCCCTGTGAATAATTC; sugars from the 5' end e6 d8 e6, all phosphorothioate, methylation of C not given here) [compound 16699]",61%,39%
"16702 (antisense TGTTCTCTTTCATCCAACTG; sugars from the 5' end e6 d8 e6, all phosphorothioate, methylation of C not given here) [compound 16702]",39%,
"16703 (antisense TCTCACTGCTGTTCACTGCT; sugars from the 5' end e6 d8 e6, all phosphorothioate, methylation of C not given here) [compound 16703]",30%,
"16704 (antisense GGGTCTGGTCGGTGGACATG; sugars from the 5' end e6 d8 e6, all phosphorothioate, methylation of C not given here) [compound 16704]",36%,
"16705 (antisense AGGCTGCTGTCAGTGTCAGA; sugars from the 5' end e6 d8 e6, all phosphorothioate, methylation of C not given here) [compound 16705]",42%,
"16706 (antisense TCACCTGCAACAACCCAGGG; sugars from the 5' end e6 d8 e6, all phosphorothioate, methylation of C not given here) [compound 16706]",45%,
"16707 (antisense GCGGCTAGTCACCTGCAACA; sugars from the 5' end e6 d8 e6, all phosphorothioate, methylation of C not given here) [compound 16707]",73%,27%
"16708 (antisense CGCTGGGTTTCGCAGGCAGG; sugars from the 5' end e6 d8 e6, all phosphorothioate, methylation of C not given here) [compound 16708]",68%,32%
"16709 (antisense ATCATCTCCTGAAGAACGCT; sugars from the 5' end e6 d8 e6, all phosphorothioate, methylation of C not given here) [compound 16709]",66%,34%

# From patent US20040029823A1, “Antisense oligonucleotide compositions and methods for the modulation of JNK proteins” (priority 1997, published 2004)
